{"source": "ChEMBL document CHEMBL5154712", "about": "“Activators of the Anticipatory Unfolded Protein Response with Enhanced Selectivity for Estrogen Receptor Positive Breast Cancer” (J Med Chem, 2022)", "key": {"MDA-MB-231 [1]": {"system": "MDA-MB-231", "experiment": "Anticancer activity against ERalpha negative human MDA-MB-231 cells assessed as cell growth inhibition incubated for 24 hrs by alamar blue assay", "type": "functional, cell-based", "settings": "MDA-MB-231, 24 h"}, "[2]": {"experiment": "Selectivity ratio of IC50 for human MDA-MB-436 cells to IC50 for human MCF7 cells", "type": "functional"}, "T47D [3]": {"system": "T47D", "experiment": "Anticancer activity against ERalpha positive human T47D cells assessed as cell growth inhibition incubated for 24 hrs by alamar blue assay", "type": "functional, cell-based"}, "MDA-MB-436 [4]": {"system": "MDA-MB-436", "experiment": "Anticancer activity against ERalpha negative human MDA-MB-436 cells assessed as cell growth inhibition incubated for 72 hrs by alamar blue assay", "type": "functional, cell-based", "settings": "MDA-MB-436, 72 h"}, "MDA-MB-231 [5]": {"system": "MDA-MB-231", "experiment": "Anticancer activity against ERalpha negative human MDA-MB-231 cells assessed as cell growth inhibition incubated for 168 hrs by alamar blue assay", "type": "functional, cell-based", "settings": "MDA-MB-231, 168 h"}, "MCF7 [6]": {"system": "MCF7", "experiment": "Antitumor activity against human MCF7 cells xenografted in athymic nude mouse assessed as reduction in tumor growth at 5 mg/kg, iv administered once a week for three doses administered for 14 days", "type": "functional, organism-based", "settings": "time 14.0 day"}, "[7]": {"experiment": "Toxicity in iv dosed Sprague-Dawley rat assessed as maximum tolerated dose administered as single dose", "type": "organism-based", "settings": "in vivo"}, "HCT-116 [8]": {"system": "HCT-116", "experiment": "Anticancer activity against ERalpha negative human HCT-116 cells assessed as cell growth inhibition incubated for 24 hrs by alamar blue assay", "type": "functional, cell-based", "settings": "HCT-116, 24 h"}, "[9]": {"experiment": "Oral bioavailability in CD-1 mouse at 40 mg/kg by LC-MS/MS analysis", "type": "ADME, organism-based", "settings": "in vivo"}, "[10]": {"experiment": "Toxicity in athymic nude mouse xenografted with human MCF7 cells assessed as change in body weight at 5 mg/kg, iv administered once a week for three doses administered for 14 days", "type": "organism-based", "settings": "in vivo, 336 h, time 14 day"}, "[11]": {"experiment": "Toxicity in iv dosed CD-1 mouse assessed as maximum tolerated dose administered as single dose", "type": "organism-based", "settings": "in vivo"}, "[12]": {"experiment": "Clearance in CD-1 mouse at 20 mg/kg, iv by LC-MS/MS analysis", "type": "ADME, organism-based", "settings": "in vivo"}, "MCF7 [13]": {"system": "MCF7", "experiment": "Anticancer activity against human MCF7 cells assessed as cell growth inhibition incubated for 24 hrs by alamar blue assay", "type": "functional, cell-based", "settings": "MCF7, 24 h"}, "HCT-116 [14]": {"system": "HCT-116", "experiment": "Anticancer activity against ERalpha negative human HCT-116 cells assessed as cell growth inhibition incubated for 72 hrs by alamar blue assay", "type": "functional, cell-based", "settings": "HCT-116, 72 h"}, "T47D [15]": {"system": "T47D", "experiment": "Anticancer activity against human T47D cells harbouring ERalphaD538G mutant assessed as cell growth inhibition incubated for 24 hrs by alamar blue assay", "type": "functional, cell-based"}, "[16]": {"experiment": "Stability of the compound in simulated gastric fluid assessed as half life measured upto 120 mins by LC-MS/MS analysis", "type": "ADME"}, "MDA-MB-436 [17]": {"system": "MDA-MB-436", "experiment": "Anticancer activity against ERalpha negative human MDA-MB-436 cells assessed as cell growth inhibition incubated for 24 hrs by alamar blue assay", "type": "functional, cell-based", "settings": "MDA-MB-436, 24 h"}, "[18]": {"experiment": "Volume of distribution at steady state in CD-1 mouse at 20 mg/kg, iv by LC-MS/MS analysis", "type": "ADME, organism-based", "settings": "CD-1, mouse, in vivo, read-out: Vdss"}, "[19]": {"experiment": "Half life in CD-1 mouse at 20 mg/kg, iv by LC-MS/MS analysis", "type": "ADME, organism-based", "settings": "CD-1, mouse, in vivo"}, "MCF7 [20]": {"system": "MCF7", "experiment": "Anticancer activity against ERalpha positive human MCF7 cells assessed as cell growth inhibition incubated for 72 hrs by alamar blue assay", "type": "functional, cell-based", "settings": "MCF7, 72 h"}, "MCF7 [21]": {"system": "MCF7", "experiment": "Anticancer activity against human MCF7 cells assessed as reduction in cell viability incubated for 24 hrs in presence of 10% CD-FBS by alamar blue assay", "type": "functional, cell-based"}, "T47D [22]": {"system": "T47D", "experiment": "Anticancer activity against human T47D cells harbouring ERalphaY537S mutant assessed as cell growth inhibition incubated for 24 hrs by alamar blue assay", "type": "functional, cell-based"}, "MDA-MB-231 [23]": {"system": "MDA-MB-231", "experiment": "Anticancer activity against ERalpha negative human MDA-MB-231 cells assessed as cell growth inhibition incubated for 72 hrs by alamar blue assay", "type": "functional, cell-based", "settings": "MDA-MB-231, 72 h"}, "[24]": {"experiment": "Toxicity in po dosed CD-1 mouse assessed as maximum tolerated dose administered as single dose", "type": "organism-based", "settings": "in vivo"}, "[25]": {"experiment": "Selectivity ratio of IC50 for human HT-29 cells to IC50 for human MCF7 cells", "type": "functional"}, "MCF7 [26]": {"system": "MCF7", "experiment": "Anticancer activity against human MCF7 cells assessed as reduction in cell viability incubated for 24 hrs in presence of 10% CD-FBS and 17-beta-estradiol by alamar blue assay", "type": "functional, cell-based"}, "[27]": {"experiment": "Cmax in CD-1 mouse at 20 mg/kg, iv by LC-MS/MS analysis", "type": "ADME, organism-based", "design": "dose 20 mg/kg, route iv", "settings": "CD-1, mouse, in vivo, read-out: Cmax"}, "[28]": {"experiment": "Selectivity ratio of IC50 for human HCT-116 cells to IC50 for human MCF7 cells", "type": "functional"}, "[29]": {"experiment": "AUC in CD-1 mouse at 20 mg/kg, iv by LC-MS/MS analysis", "type": "ADME, organism-based", "design": "dose 20 mg/kg, route iv", "settings": "CD-1, mouse, in vivo, read-out: AUC"}, "[30]": {"experiment": "Selectivity ratio of IC50 for human MDA-MB-231 cells to IC50 for human MCF7 cells", "type": "functional"}, "HT-29 [31]": {"system": "HT-29", "experiment": "Anticancer activity against ERalpha negative human HT-29 cells assessed as cell growth inhibition incubated for 24 hrs by alamar blue assay", "type": "functional, cell-based", "settings": "HT-29, 24 h"}, "[32]": {"experiment": "MRT in CD-1 mouse at 20 mg/kg, iv by LC-MS/MS analysis", "type": "ADME, organism-based", "settings": "CD-1, mouse, in vivo, read-out: MRT"}, "HT-29 [33]": {"system": "HT-29", "experiment": "Anticancer activity against ERalpha negative human HT-29 cells assessed as cell growth inhibition incubated for 72 hrs by alamar blue assay", "type": "functional, cell-based", "settings": "HT-29, 72 h"}, "[34]": {"experiment": "Stability of the compound in simulated gastric fluid assessed as compound remaining measured after 120 mins by LC-MS/MS", "type": "ADME", "settings": "read-out: Stability"}, "HCT-116 [35]": {"system": "HCT-116", "experiment": "Anticancer activity against ERalpha negative human HCT-116 cells assessed as cell growth inhibition incubated for 168 hrs by alamar blue assay", "type": "functional, cell-based", "settings": "HCT-116, 168 h"}}, "note": "Active and inactive are the calls of the source. No cut-off for these calls is given here."}
{"smiles": "O=C1Nc2c(C(F)(F)F)cccc2[C@]1(c1ccc(O)cc1)C1CCC(F)(F)CC1", "values": [{"measurement": "IC50", "setting": "MDA-MB-231 [1]", "result": 55, "unit": "µM"}, {"measurement": "Ratio IC50", "setting": "[2]", "result": 3200}, {"measurement": "IC50", "setting": "T47D [3]", "result": 16, "unit": "nM"}, {"measurement": "IC50", "setting": "MDA-MB-436 [4]", "result": 55, "unit": "µM"}, {"measurement": "IC50", "setting": "MDA-MB-231 [5]", "result": 33, "unit": "µM"}, {"measurement": "Activity", "setting": "MCF7 [6]", "result": "Active"}, {"measurement": "MTD", "setting": "[7]", "result": "> 50", "unit": "mg/kg"}, {"measurement": "IC50", "setting": "HCT-116 [8]", "result": 55, "unit": "µM"}, {"measurement": "bioavailability", "setting": "[9]", "result": 6, "unit": "%"}, {"measurement": "Activity", "setting": "[10]", "result": "Non-Toxic"}, {"measurement": "MTD", "setting": "[11]", "result": 95, "unit": "mg/kg"}, {"measurement": "clearance", "setting": "[12]", "result": 52, "unit": "mL/min/kg"}, {"measurement": "IC50", "setting": "MCF7 [13]", "result": 17, "unit": "nM"}, {"measurement": "IC50", "setting": "HCT-116 [14]", "result": 55, "unit": "µM"}, {"measurement": "IC50", "setting": "T47D [15]", "result": 9, "unit": "nM"}, {"measurement": "half-life", "setting": "[16]", "result": 56, "unit": "min"}, {"measurement": "IC50", "setting": "MDA-MB-436 [17]", "result": 64, "unit": "µM"}, {"measurement": "Vd", "setting": "[18]", "result": 2.8, "unit": "L/kg"}, {"measurement": "half-life", "setting": "[19]", "result": 18, "unit": "min"}, {"measurement": "IC50", "setting": "MCF7 [20]", "result": 17, "unit": "nM"}, {"measurement": "Activity", "setting": "MCF7 [21]", "result": "Active"}, {"measurement": "IC50", "setting": "T47D [22]", "result": 7, "unit": "nM"}, {"measurement": "IC50", "setting": "MDA-MB-231 [23]", "result": 55, "unit": "µM"}, {"measurement": "MTD", "setting": "[24]", "result": "> 200", "unit": "mg/kg"}, {"measurement": "Ratio IC50", "setting": "[25]", "result": 1600}, {"measurement": "Activity", "setting": "MCF7 [26]", "result": "Active"}, {"measurement": "Cmax", "setting": "[27]", "result": 14700, "unit": "ng/mL"}, {"measurement": "Ratio IC50", "setting": "[28]", "result": 3200}, {"measurement": "AUC", "setting": "[29]", "result": 6300, "unit": "ng·h/mL"}, {"measurement": "Ratio IC50", "setting": "[30]", "result": 1900}, {"measurement": "IC50", "setting": "HT-29 [31]", "result": 33, "unit": "µM"}, {"measurement": "MRT", "setting": "[32]", "result": 54, "unit": "min"}, {"measurement": "IC50", "setting": "HT-29 [33]", "result": 27, "unit": "µM"}, {"measurement": "remaining at 2 h", "setting": "[34]", "result": 13, "unit": "%"}, {"measurement": "IC50", "setting": "HCT-116 [35]", "result": 42, "unit": "µM"}]}
